Converted amounts (≈) assume the structure as drawn. The source made the active and inactive calls.

Here are results for eight compounds from ChEMBL document CHEMBL3769303, “Discovery of membrane active benzimidazole quinolones-based topoisomerase inhibitors as potential DNA-binding antimicrobial agents” (Eur J Med Chem, 2016).

Assay [1] deals with Shigella dysenteriae. In words: Antibacterial activity against Shigella dysenteriae by micro broth dilution method. The assay is classed as functional. On the technique in general: In broth dilution the organism is exposed to a series of concentrations in liquid medium.
For assay [2], the system named is Cyberlindnera jadinii. In words: Antifungal activity against Candida utilis ATCC 9950 after 24 hrs by micro broth dilution method. The class given is functional. The note with it: Williopsis jadinii, ATCC 9950, 24 h.
Assay [3] deals with Micrococcus luteus. The experiment in a line: Antibacterial activity against Micrococcus luteus ATCC 4698 by micro broth dilution method. The assay is classed as functional. The note with it: NCTC 2665.
Assay [4] relates to Staphylococcus aureus. The experiment in a line: Antibacterial activity against methicillin-resistant Staphylococcus aureus N315 by micro broth dilution method. The assay is classed as functional.
The test system of assay [5] is Salmonella enterica. The experiment in a line: Antibacterial activity against Salmonella enterica ATCC 14028 by micro broth dilution method. The assay is classed as functional.
For assay [6], the system named is Aspergillus flavus. The experiment in a line: Antifungal activity against Aspergillus flavus ATCC 204304 after 24 hrs by micro broth dilution method. The assay is classed as functional. The following applies: ATCC 204304, 24 h.
For assay [7], the system named is Pseudomonas aeruginosa. In words: Antibacterial activity against Pseudomonas aeruginosa ATCC 27853 by micro broth dilution method. The assay is classed as functional.
A short description of assay [8]: Antifungal activity against Candida mycoderma ATCC 9888 after 24 hrs by micro broth dilution method. The class given is functional. The following applies: Candida vini.
Assay [9] has as its system Escherichia coli. The experiment in a line: Antibacterial activity against Escherichia coli JM109 by micro broth dilution method. The assay is classed as functional.
In assay [10] the test system is Saccharomyces cerevisiae. The experiment in a line: Antifungal activity against Saccharomyces cerevisiae ATCC 9763 after 24 hrs by micro broth dilution method. The assay is classed as functional. The note with it: ATCC 9763, 24 h.
Assay [11] relates to Bacillus spizizenii. In words: Antibacterial activity against Bacillus subtilis ATCC 6633 by micro broth dilution method. The assay is classed as functional.
Assay [12] relates to Staphylococcus aureus. In words: Antibacterial activity against Staphylococcus aureus ATCC 25923 by micro broth dilution method. The class given is functional.
The test system of assay [13] is Escherichia coli. In words: Antibacterial activity against Escherichia coli DH52 by micro broth dilution method. The assay is classed as functional.
In assay [14] the test system is Candida albicans. In words: Antifungal activity against Candida albicans ATCC 10231 after 24 hrs by micro broth dilution method. The note with it: ATCC 10231, 24 h. The class given is functional.
A short description of assay [15]: Antibacterial activity against Bacillus proteus ATCC 13315 by micro broth dilution method. The assay is classed as functional.
Assay [16] deals with Calf thymus DNA. The experiment in a line: Binding affinity to calf thymus DNA by UV-visible spectroscopy. The assay is classed as nucleic-acid assay. The note with it: Bos taurus.
The test system of assay [17] is Staphylococcus aureus. The experiment in a line: Antibacterial activity against methicillin-resistant Staphylococcus aureus N315 at MIC measured after 6 passages. The class given is functional, organism-based.

On to `O=C(O)c1cn(C2CC2)c2cc(N3CCN(Cc4nc5ccccc5n4Cc4ccc(F)cc4)CC3)c(F)cc2c1=O`, for which the MIC (in general, the smallest concentration in the dilution series that meets the test's criterion for growth inhibition) turned out to be 16 µg/mL (≈ 28.1 µM) in [1]; 16 µg/mL (≈ 28.1 µM) in assay [3]; 4 µg/mL (≈ 7.02 µM) in assay [4]; 16 µg/mL (≈ 28.1 µM) in assay [5]; 8 µg/mL (≈ 14 µM) in assay [7]; 16 µg/mL (≈ 28.1 µM) in assay [9]. The MIC in assay [11] came to 8 µg/mL (≈ 14 µM); in [12] it was 16 µg/mL (≈ 28.1 µM); in assay [13] it was 32 µg/mL (≈ 56.2 µM); in assay [15], 16 µg/mL (≈ 28.1 µM). Also, the MIC80 – broadly, the lowest concentration that inhibits either 80% of growth or 80% of the strains tested, depending on the study – in assay [2] came out at 8 µg/mL (≈ 14 µM); in assay [6] it was 8 µg/mL (≈ 14 µM); in [8], 16 µg/mL (≈ 28.1 µM); in assay [10], 16 µg/mL (≈ 28.1 µM); in assay [14] it was 8 µg/mL (≈ 14 µM).

In the case of `O=C(O)c1cn(C2CC2)c2cc(N3CCN(Cc4nc5ccccc5n4Cc4ccc([N+](=O)[O-])cc4)CC3)c(F)cc2c1=O`, the MIC in assay [1] is 8 µg/mL (≈ 13.4 µM); in [3] it was 8 µg/mL (≈ 13.4 µM); in assay [4], 2 µg/mL (≈ 3.35 µM); in assay [5], 16 µg/mL (≈ 26.8 µM); in assay [7] it was 4 µg/mL (≈ 6.7 µM); in assay [9] it was 8 µg/mL (≈ 13.4 µM). In addition, the MIC in [11] amounted to 4 µg/mL (≈ 6.7 µM); in [12], 4 µg/mL (≈ 6.7 µM); in [13], 16 µg/mL (≈ 26.8 µM); in [15] it was 8 µg/mL (≈ 13.4 µM). For the same compound, the MIC80 was found to be 2 µg/mL (≈ 3.35 µM) in assay [2]; 1 µg/mL (≈ 1.68 µM) in assay [6]; 4 µg/mL (≈ 6.7 µM) in [8]; 1 µg/mL (≈ 1.68 µM) in [10]; 2 µg/mL (≈ 3.35 µM) in assay [14].

On to `CCn1cc(C(=O)O)c(=O)c2cc(F)c(N3CCN(Cc4nc5ccccc5n4Cc4ccccc4Cl)CC3)cc21`, for which the MIC in assay [1] was found to be 16 µg/mL (≈ 27.9 µM); in [3], 0.5 µg/mL (≈ 0.871 µM); in assay [4] it was 0.125 µg/mL (≈ 0.218 µM); in [5], 0.5 µg/mL (≈ 0.871 µM); in assay [7], 1 µg/mL (≈ 1.74 µM); in [9], 16 µg/mL (≈ 27.9 µM). The MIC in assay [11] was determined as 16 µg/mL (≈ 27.9 µM); in assay [12] it was 8 µg/mL (≈ 13.9 µM); in assay [13], 2 µg/mL (≈ 3.48 µM); in assay [15] it was 4 µg/mL (≈ 6.97 µM). Moreover, the MIC80 in assay [2] was 2 µg/mL (≈ 3.48 µM); in [6], 0.5 µg/mL (≈ 0.871 µM); in assay [8], 0.5 µg/mL (≈ 0.871 µM); in assay [10], 1 µg/mL (≈ 1.74 µM); in [14], 4 µg/mL (≈ 6.97 µM).

With `CCCCCn1c(CN2CCN(c3cc4c(cc3F)c(=O)c(C(=O)O)cn4CC)CC2)nc2ccccc21`, the MIC in assay [1] is 128 µg/mL (≈ 246 µM); in assay [3], 16 µg/mL (≈ 30.8 µM); in [4], 64 µg/mL (≈ 123 µM); in [5], 256 µg/mL (≈ 493 µM); in assay [7] it was 64 µg/mL (≈ 123 µM); in assay [9], 128 µg/mL (≈ 246 µM). Also, the MIC worked out at 32 µg/mL (≈ 61.6 µM) in assay [11], 512 µg/mL (≈ 985 µM) in assay [12], 8 µg/mL (≈ 15.4 µM) in assay [13] and 8 µg/mL (≈ 15.4 µM) in assay [15]. Moreover, the MIC80 was 32 µg/mL (≈ 61.6 µM) in [2]; 64 µg/mL (≈ 123 µM) in assay [6]; 8 µg/mL (≈ 15.4 µM) in assay [8]; 64 µg/mL (≈ 123 µM) in [10]; 4 µg/mL (≈ 7.7 µM) in [14].

As to `CCn1cc(C(=O)O)c(=O)c2cc(F)c(N3CCNCC3)cc21` [NORFLOXACIN], the minimum inhibitory concentration (MIC) is 16 µg/mL (≈ 50.1 µM) in assay [1]; 2 µg/mL (≈ 6.26 µM) in assay [3]; 8 µg/mL (≈ 25.1 µM) in [4]; 4 µg/mL (≈ 12.5 µM) in assay [5]; 16 µg/mL (≈ 50.1 µM) in assay [7]; 1 µg/mL (≈ 3.13 µM) in assay [9]. The MIC in assay [11] came to 4 µg/mL (≈ 12.5 µM); in [12], 2 µg/mL (≈ 6.26 µM); in [13], 1 µg/mL (≈ 3.13 µM); in assay [15] it was 8 µg/mL (≈ 25.1 µM). Besides, the outcome in [16] was Active. The outcome in assay [17] was inactive.

Regarding `CCCCCCCCCCCCCCCCCCn1c(CN2CCN(c3cc4c(cc3F)c(=O)c(C(=O)O)cn4CC)CC2)nc2ccccc21`, the MIC in [1] was 256 µg/mL (≈ 365 µM); in [3], 128 µg/mL (≈ 182 µM); in [4], 128 µg/mL (≈ 182 µM); in assay [5], 256 µg/mL (≈ 365 µM); in [7] it was 256 µg/mL (≈ 365 µM); in assay [9] it was 256 µg/mL (≈ 365 µM). Moreover, the MIC in assay [11] came out at 128 µg/mL (≈ 182 µM); in assay [12] it was 256 µg/mL (≈ 365 µM); in [13], 256 µg/mL (≈ 365 µM); in [15], 256 µg/mL (≈ 365 µM). Besides, the MIC80 in assay [2] came to 64 µg/mL (≈ 91.2 µM); in [6], 64 µg/mL (≈ 91.2 µM); in [8] it was 64 µg/mL (≈ 91.2 µM); in assay [10], 128 µg/mL (≈ 182 µM); in assay [14] it was 128 µg/mL (≈ 182 µM).

On to `O=C(O)c1cn(C2CC2)c2cc(N3CCN(CCc4nc5ccccc5[nH]4)CC3)c(F)cc2c1=O`, for which the MIC in assay [1] turned out to be 0.5 µg/mL (≈ 1.05 µM); in [3], 1 µg/mL (≈ 2.1 µM); in assay [4], 4 µg/mL (≈ 8.41 µM); in [5] it was 1 µg/mL (≈ 2.1 µM); in assay [7] it was 0.5 µg/mL (≈ 1.05 µM); in assay [9], 2 µg/mL (≈ 4.21 µM). For the same compound, the MIC in assay [11] was determined as 128 µg/mL (≈ 269 µM); in assay [12] it was 4 µg/mL (≈ 8.41 µM); in [13], 4 µg/mL (≈ 8.41 µM); in assay [15], 2 µg/mL (≈ 4.21 µM). The MIC80 in assay [2] came out at 4 µg/mL (≈ 8.41 µM); in [6], 1 µg/mL (≈ 2.1 µM); in assay [8] it was 2 µg/mL (≈ 4.21 µM); in assay [10], 1 µg/mL (≈ 2.1 µM); in [14] it was 2 µg/mL (≈ 4.21 µM).

For `O=C(O)c1cn(C2CC2)c2cc(N3CCN(Cc4nc5ccccc5n4Cc4cccc(F)c4)CC3)c(F)cc2c1=O`, the MIC in [1] was 256 µg/mL (≈ 449 µM); in [3], 64 µg/mL (≈ 112 µM); in assay [4] it was 8 µg/mL (≈ 14 µM); in assay [5], 4 µg/mL (≈ 7.02 µM); in assay [7] it was 16 µg/mL (≈ 28.1 µM); in assay [9] it was 256 µg/mL (≈ 449 µM). The minimal inhibitory concentration (MIC) was 32 µg/mL (≈ 56.2 µM) in [11], 256 µg/mL (≈ 449 µM) in [12], 256 µg/mL (≈ 449 µM) in [13] and 128 µg/mL (≈ 225 µM) in assay [15]. Further, the MIC80 turned out to be 256 µg/mL (≈ 449 µM) in [2]; 16 µg/mL (≈ 28.1 µM) in [6]; 64 µg/mL (≈ 112 µM) in assay [8]; 128 µg/mL (≈ 225 µM) in assay [10]; 64 µg/mL (≈ 112 µM) in assay [14].
